Data reported in US12552825B2 (Zikani Therapeutics, Inc., priority 2019, dated 2026).
≈ marks a conversion by molar mass, not a printed value.

Tests used:
Type in all cases: cell-based
[1] = test system: S. aureus MP-12; assay: microbe, parasite or virus in culture; conditions: Staphylococcus aureus, MP12, read-out: MIC S. aureus MP-12
[2] = test system: E. coli MP-4; assay: MIC determination by CLSI broth dilution, E. coli MP-4; conditions: Escherichia coli, MP4, CLSI broth dilution; strain MP-4
[3] = test system: K. pneumoniae MP-546; assay: MIC determination by CLSI broth dilution, K. pneumoniae MP-546; conditions: Klebsiella pneumoniae, MP546, CLSI broth dilution; strain MP-546
[4] = test system: P. aeruginosa MP-3; assay: MIC determination by CLSI broth dilution, P. aeruginosa MP-3; conditions: Pseudomonas aeruginosa, MP3, strain MP-3
[5] = test system: A. baumannii MP-15; assay: MIC determination by CLSI broth dilution, A. baumannii MP-15; conditions: Acinetobacter baumannii, MP15, strain MP-15, read-out: MIC A. baumanii MP-15
[6] = test system: K. pneumoniae MP-648; assay: MIC determination by CLSI broth dilution, K. pneumoniae MP-648; conditions: Klebsiella pneumoniae, MP648, CLSI broth dilution; strain MP-648

| Compound | MIC [1] [µg/mL] | MIC [2] [µg/mL] | MIC [3] [µg/mL] | MIC [4] [µg/mL] | MIC [5] [µg/mL] | MIC [6] [µg/mL] |
| --- | --- | --- | --- | --- | --- | --- |
| CO[C@]1(C)C[C@@H](C)CN(C)[C@@H](CN2CCN(S(=O)(=O)c3cn(C)cn3)CC2)[C@H](C)OC(=O)C(C)(C)C(=O)[C@H](C)[C@H]1O[C@@H]1O[C@H](C)C[C@H](N(C)C)[C@H]1O [Compound 81, (2S,3S,6R,8R,9R,10R)-9-(((2S,3R,4S,6R)-4-(dimethylamino)-3-hydroxy-6-methyltetrahydro-2H-pyran-2-yl)oxy)-8-methoxy-2,4,6,8,10,12,12-heptamethyl-3-((4-((1-methyl-1H-imidazol-4-yl)sulfonyl)piperazin-1-yl)methyl)-1-oxa-4-azacyclotridecane-11,13-dione] | 4 to 32 (≈ 5.28 to 42.3 µM) | > 32 | > 32 | > 32 | > 32 |  |
| CO[C@]1(C)C[C@@H](C)CN(C)[C@@H](CCCN2CCCCC2)COC(=O)C(C)(C)C(=O)[C@H](C)[C@H]1O[C@@H]1O[C@H](C)C[C@H](N(C)C)[C@H]1O [Compound 83, (3S,6R,8R,9R,10R)-9-(((2S,3R,4S,6R)-4-(dimethylamino)-3-hydroxy-6-methyltetrahydro-2H-pyran-2-yl)oxy)-8-methoxy-4,6,8,10,12,12-hexamethyl-3-(3-(piperidin-1-yl)propyl)-1-oxa-4-azacyclotridecane-11,13-dione] | 4 to 32 (≈ 6.39 to 51.1 µM) | < 4 | < 4 | > 32 | > 32 |  |
| CO[C@]1(C)C[C@@H](C)CN(C)[C@@H](C(=O)N2CCN(C(C)C)CC2)[C@H](C)OC(=O)C(C)(C)C(=O)[C@H](C)[C@H]1O[C@@H]1O[C@H](C)C[C@H](N(C)C)[C@H]1O [Compound 91, (2S,3R,6R,8R,9R,10R)-9-(((2S,3R,4S,6R)-4-(dimethylamino)-3-hydroxy-6-methyltetrahydro-2H-pyran-2-yl)oxy)-3-(4-isopropylpiperazine-1-carbonyl)-8-methoxy-2,4,6,8,10,12,12-heptamethyl-1-oxa-4-azacyclotridecane-11,13-dione] | > 32 | > 32 | > 32 | > 32 | > 32 |  |
| CO[C@]1(C)C[C@@H](C)CN(C)[C@@H](C(=O)N2CCN(C)CC2)[C@H](C)OC(=O)C(C)(C)C(=O)[C@H](C)[C@H]1O[C@@H]1O[C@H](C)C[C@H](N(C)C)[C@H]1O [Compound 97, (2S,3R,6R,8R,9R,10R)-9-(((2S,3R,4S,6R)-4-(dimethylamino)-3-hydroxy-6-methyltetrahydro-2H-pyran-2-yl)oxy)-8-methoxy-2,4,6,8,10,12,12-heptamethyl-3-(4-methylpiperazine-1-carbonyl)-1-oxa-4-azacyclotridecane-11,13-dione] | > 32 | > 32 | > 32 | > 32 | > 32 |  |
| CO[C@]1(C)C[C@@H](C)CN(C)[C@@H](CN(C)Cc2nccn2C)COC(=O)C(C)(C)C(=O)[C@H](C)[C@H]1O[C@@H]1O[C@H](C)C[C@H](N(C)C)[C@H]1O [Compound 104, (3S,6R,8R,9R,10R)-9-(((2S,3R,4S,6R)-4-(Dimethylamino)-3-hydroxy-6-methyltetrahydro-2H-pyran-2-yl)oxy)-8-methoxy-4,6,8,10,12,12-hexamethyl-3-((methyl((1-methyl-11H-imidazol-2-yl)methyl)amino)methyl)-1-oxa-4-azacyclotridecane-11,13-dione] | > 32 | 4 to 32 (≈ 6.27 to 50.2 µM) | > 32 | > 32 | > 32 |  |
| CO[C@]1(C)C[C@@H](C)CN(C)[C@@H](CN2CCN(C(=O)C(F)(F)F)CC2)[C@H](C)OC(=O)C(C)(C)C(=O)[C@H](C)[C@H]1O[C@@H]1O[C@H](C)C[C@H](N(C)C)[C@H]1O [Compound 109, (2S,3S,6R,8R,9R,10R)-9-(((2S,3R,4S,6R)-4-(dimethylamino)-3-hydroxy-6-methyltetrahydro-2H-pyran-2-yl)oxy)-8-methoxy-2,4,6,8,10,12,12-heptamethyl-3-((4-(2,2,2-trifluoroacetyl)piperazin-1-yl)methyl)-1-oxa-4-azacyclotridecane-11,13-dione] | 4 to 32 (≈ 5.64 to 45.1 µM) | 4 to 32 (≈ 5.64 to 45.1 µM) | > 32 | > 32 | > 32 |  |
| CO[C@]1(C)C[C@@H](C)CN(C)[C@@H](CN2CCN(C(=O)C(C)(C)C)CC2)[C@H](C)OC(=O)C(C)(C)C(=O)[C@H](C)[C@H]1O[C@@H]1O[C@H](C)C[C@H](N(C)C)[C@H]1O [Compound 114, (2S,3S,6R,8R,9R,10R)-9-(((2S,3R,4S,6R)-4-(dimethylamino)-3-hydroxy-6-methyltetrahydro-2H-pyran-2-yl)oxy)-8-methoxy-2,4,6,8,10,12,12-heptamethyl-3-((4-pivaloylpiperazin-1-yl)methyl)-1-oxa-4-azacyclotridecane-11,13-dione] | 4 to 32 (≈ 5.74 to 45.9 µM) | > 32 | > 32 | > 32 | > 32 |  |
| CO[C@]1(C)C[C@@H](C)CN(C)[C@@H](C(=O)N2CCN(CC(F)(F)F)CC2)[C@H](C)OC(=O)C(C)(C)C(=O)[C@H](C)[C@H]1O[C@@H]1O[C@H](C)C[C@H](N(C)C)[C@H]1O [Compound 130, (2S,3R,6R,8R,9R,10R)-9-(((2S,3R,4S,6R)-4-(dimethylamino)-3-hydroxy-6-methyltetrahydro-2H-pyran-2-yl)oxy)-8-methoxy-2,4,6,8,10,12,12-heptamethyl-3-(4-(2,2,2-trifluoroethyl)piperazine-1-carbonyl)-1-oxa-4-azacyclotridecane-11,13-dione] | > 32 | > 32 | > 32 | > 32 | > 32 |  |
| CCC(=O)N1CCN(C[C@H]2[C@H](C)OC(=O)C(C)(C)C(=O)[C@H](C)[C@@H](O[C@@H]3O[C@H](C)C[C@H](N(C)C)[C@H]3O)[C@](C)(OC)C[C@@H](C)CN2C)CC1 [Compound 133, (2S,3S,6R,8R,9R,10R)-9-(((2S,3R,4S,6R)-4-(dimethylamino)-3-hydroxy-6-methyltetrahydro-2H-pyran-2-yl)oxy)-8-methoxy-2,4,6,8,10,12,12-heptamethyl-3-((4-propionylpiperazin-1-yl)methyl)-1-oxa-4-azacyclotridecane-11,13-dione] | 4 to 32 (≈ 5.98 to 47.8 µM) | > 32 | > 32 | > 32 | > 32 |  |
| CO[C@]1(C)C[C@@H](C)CN(C)[C@@H](CN2CCN(C(C)=O)CC2)[C@H](C)OC(=O)C(C)(C)C(=O)[C@H](C)[C@H]1O[C@@H]1O[C@H](C)C[C@H](N(C)C)[C@H]1O [Compound 135, (2S,3S,6R,8R,9R,10R)-3-((4-acetylpiperazin-1-yl)methyl)-9-(((2S,3R,4S,6R)-4-(dimethylamino)-3-hydroxy-6-methyltetrahydro-2H-pyran-2-yl)oxy)-8-methoxy-2,4,6,8,10,12,12-heptamethyl-1-oxa-4-azacyclotridecane-11,13-dione] | 4 to 32 (≈ 6.11 to 48.9 µM) | > 32 | > 32 | > 32 | > 32 |  |
| CO[C@]1(C)C[C@@H](C)CN(C)[C@@H](C(=O)N2CCNCC2)[C@H](C)OC(=O)C(C)(C)C(=O)[C@H](C)[C@H]1O[C@@H]1O[C@H](C)C[C@H](N(C)C)[C@H]1O [Compound 136, (2S,3R,6R,8R,9R,10R)-9-(((2S,3R,4S,6R)-4-(dimethylamino)-3-hydroxy-6-methyltetrahydro-2H-pyran-2-yl)oxy)-8-methoxy-2,4,6,8,10,12,12-heptamethyl-3-(piperazine-1-carbonyl)-1-oxa-4-azacyclotridecane-11,13-dione] | > 32 | > 32 | > 32 | > 32 | > 32 |  |
| CO[C@]1(C)C[C@@H](C)CN(C)[C@@H](CN2CCN(S(=O)(=O)c3ccc(C)cc3)CC2)[C@H](C)OC(=O)C(C)(C)C(=O)[C@H](C)[C@H]1O[C@@H]1O[C@H](C)C[C@H](N(C)C)[C@H]1O [Compound 139, (2S,3S,6R,8R,9R,10R)-9-(((2S,3R,4S,6R)-4-(dimethylamino)-3-hydroxy-6-methyltetrahydro-2H-pyran-2-yl)oxy)-8-methoxy-2,4,6,8,10,12,12-heptamethyl-3-((4-tosylpiperazin-1-yl)methyl)-1-oxa-4-azacyclotridecane-11,13-dione] | 4 to 32 (≈ 5.21 to 41.7 µM) | > 32 | > 32 | > 32 | > 32 |  |
| CO[C@]1(C)C[C@@H](C)CN(C)[C@@H](CN2CCN(S(=O)(=O)N(C)C)CC2)[C@H](C)OC(=O)C(C)(C)C(=O)[C@H](C)[C@H]1O[C@@H]1O[C@H](C)C[C@H](N(C)C)[C@H]1O [Compound 142, 4-(((2S,3S,6R,8R,9R,10R)-9-(((2S,3R,4S,6R)-4-(dimethylamino)-3-hydroxy-6-methyltetrahydro-2H-pyran-2-yl)oxy)-8-methoxy-2,4,6,8,10,12,12-heptamethyl-11,13-dioxo-1-oxa-4-azacyclotridecan-3-yl)methyl)-N,N-dimethylpiperazine-1-sulfonamide] | 4 to 32 (≈ 5.56 to 44.4 µM) | > 32 | > 32 | > 32 | > 32 |  |
| CO[C@]1(C)C[C@@H](C)CN(C)[C@H](/C=C/CN2Cc3cccnc3C2)COC(=O)C(C)(C)C(=O)[C@H](C)[C@H]1O[C@@H]1O[C@H](C)C[C@H](N(C)C)[C@H]1O [Compound 152] | 4 to 32 (≈ 6.07 to 48.6 µM) | < 4 |  | > 32 | > 32 | 4 to 32 (≈ 6.07 to 48.6 µM) |
| CO[C@]1(C)C[C@@H](C)CN(C)[C@H](/C=C/CN2CCCC2)COC(=O)C(C)(C)C(=O)[C@H](C)[C@H]1O[C@@H]1O[C@H](C)C[C@H](N(C)C)[C@H]1O [Compound 153] | 4 to 32 (≈ 6.56 to 52.5 µM) | < 4 |  | > 32 | > 32 | < 4 |
